According to patent publication US10227331B2 (priority 2015, dated 2019):

What was measured:
IMP-1 = IMP-1 (Serratia marcescens, UniProt P52699); assay: biochemical; assay type: biochemical; settings: CCF2-FA substrate, 2 hours at 25° C; read-out: IMP-1 IC50
Method: (§1) Enzyme Activity: Determination of IC50
(§2) The Class B enzyme activities were measured in the presence of the test inhibitor in a fluorescence assay against a commercially available substrate consisting of a cephalosporin core linking 7-hydroxycoumarin to fluorescein (CCF2-FA). […] In a 384-well microplate, the test inhibitor was incubated with the metallo-β-lactamase enzyme and the substrate for 2 hours at 25° C. […] The IC50 value was determined from semi-logarithmic plots of enzyme inhibition versus inhibitor concentration, with a curve generated using a 4-parameter fit.

NDM-1 = NDM-1 (Klebsiella pneumoniae, UniProt C7C422); assay: biochemical; assay type: biochemical; settings: CCF2-FA substrate, 2 hours at 25° C; read-out: NDM-1 IC50
Sequence of NDM-1 (C7C422 whole entry, looked up, species assumed): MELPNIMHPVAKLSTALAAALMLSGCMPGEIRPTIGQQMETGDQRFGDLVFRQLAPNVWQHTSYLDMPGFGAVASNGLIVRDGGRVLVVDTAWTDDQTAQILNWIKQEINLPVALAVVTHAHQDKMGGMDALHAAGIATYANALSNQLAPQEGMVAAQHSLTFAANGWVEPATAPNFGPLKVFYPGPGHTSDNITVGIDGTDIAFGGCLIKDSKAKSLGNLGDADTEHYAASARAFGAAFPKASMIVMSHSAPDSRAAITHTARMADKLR
Method: as §1, §2

VIM-1 = VIM-1 (Pseudomonas aeruginosa (strain ATCC 15692 / DSM 22644 / CIP 104116 / JCM 14847 / LMG 12228 / 1C / PRS 101 / PAO1), UniProt A0A0F7KYQ8); assay: biochemical; settings: CCF2-FA substrate, 2 hours at 25° C
Method: as §1, §2

[1] = test system: Escherichia coli expressing NDM-1 (CLB30005, CLB30016); assay type: cell-based; settings: with imipenem 1 μg/ml, 95% inhibition of bacterial growth; for Escherichia coli MITC95: NDM-1 (CLB30016)
Method: (§3) Antibiotic Potentiation Activity: Determination of Synergistic Concentration
(§4) The bacterial strains tested included the clinical strains Escherichia coli expressing NDM-1 (CLB30005, CLB30016), Serratia marcescens expressing IMP-1 (CL5741), and Klebsiella pneumoniae expressing VIM-1 (IHMA599644). Inhibitor activity was measured in the presence and absence of imipenem in a 384-well microplate.
(§5) The clinical strains CLB30016, CL5741 and IHMA599644 were grown on trypticase soy agar containing 5% sheep's blood. The bacteria on agar plates were incubated at 35° C. with humidity overnight. The following day, individual colonies from each clinical strain were picked and resuspended in 5 ml saline to attain an OD600 of […], for CLB30016, CL5741 and IHMA599644, respectively. These were further diluted 1:100 into 1.1×CAMHB and used to inoculate the test wells as described below.
(§6) Imipenem in 10 mM 3-(N-morpholino)propanesulfonic acid (MOPS, pH 7) was stored in single use aliquots at −80° C. […] On the day of the assay, 4 μl of antibiotic was added to 45 ul of bacteria followed by 1 μl of test compound and mixed by pipetting and with an orbital shaker. The concentration of antibiotic used in the assay was 1 μg/ml. Microplates were covered and incubated at 35° C. for 22 hours to 24 hours. At the end of the incubation, absorbance was determined using a spectrophotometer.
(§7) For example, in general, the compounds of Examples 1-379 were determined to restore susceptibility to imipenem for one or more of the test organisms at concentrations of 100 μM or less.

[2] = test system: Klebsiella pneumoniae expressing VIM-1 (IHMA599644); assay type: cell-based; settings: with imipenem 1 μg/ml, 95% inhibition of bacterial growth; for Klebsiella pneumoniae MITC95: VIM-1 (IHMA599644)
Method: as §3, §4, §5, §6, §7

[3] = test system: Serratia marcescens expressing IMP-1 (CL5741); assay type: cell-based; settings: with imipenem 1 μg/ml, 95% inhibition of bacterial growth; for Serratia marcescens MITC95: IMP-1 (CL5741)
Method: as §3, §4, §5, §6, §7

[4] = test system: P. aeruginosa expressing IMP-1, efflux+ (MB9798); assay type: cell-based, Pseudomonas aeruginosa; settings: for P. aeruginosa expressing IMP-1, efflux+ (MB9798) MITC95: imipenem at 2 μg/mL, in the presence of a class A, C, D serine β-lactamase inhibitor closely related to relebactam; for Efflux ratio: ratio MITC95 PA_9798/MITC95 PA_9799
Text: (§8) The strain background is Pseudomonas aeruginosa PAO1.

[5] = test system: P. aeruginosa expressing IMP-1, efflux− (MB9799); assay: Efflux: concentration of MBL inhibitor which restores susceptibility to imipenem; assay type: cell-based, Pseudomonas aeruginosa; settings: imipenem at 2 μg/mL, in the presence of a class A, C, D serine β-lactamase inhibitor closely related to relebactam
Text: as §8

Sequence of IMP-1 (P52699 whole entry, looked up, species assumed): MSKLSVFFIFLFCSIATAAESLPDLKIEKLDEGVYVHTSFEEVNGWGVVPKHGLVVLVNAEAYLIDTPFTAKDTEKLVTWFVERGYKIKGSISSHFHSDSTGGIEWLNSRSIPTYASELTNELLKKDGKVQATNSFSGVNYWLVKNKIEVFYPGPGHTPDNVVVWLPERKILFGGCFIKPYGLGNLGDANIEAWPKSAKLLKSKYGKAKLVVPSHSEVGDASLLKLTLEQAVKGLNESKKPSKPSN

Structure (SMILES) | IC50 (IMP-1) [nM] | IC50 (NDM-1) [nM] | IC50 (VIM-1) [nM] | Escherichia coli expressing NDM-1 (CLB30016) MITC95 [1] [µM] | Klebsiella pneumoniae expressing VIM-1 (IHMA599644) MITC95 [2] [µM] | Serratia marcescens expressing IMP-1 (CL5741) MITC95 [3] [µM] | P. aeruginosa expressing IMP-1, efflux+ (MB9798) MITC95 [4] [µM] | Efflux ratio [4] | P. aeruginosa expressing IMP-1, efflux− (MB9799) MITC95 [5] [µM] | Escherichia coli MITC95 [1] [µM] | Klebsiella pneumoniae MITC95 [2] [µM] | Serratia marcescens MITC95 [3] [µM]
Nc1nc2cc(-c3ccc(SC4CNC4)c(S(N)(=O)=O)c3-c3nn[nH]n3)ccc2[nH]1 [Example 1, 3-(2-amino-1H-benzo[d]imidazol-5-yl)-6-(azetidin-3-ylthio)-2-(2H-tetrazol-5-yl)benzenesulfonamide] | 422 | 20.8 | 141 | 0.3906 | 6.25 | 6.25 | 50 | 8.00 | 6.25 |  |  | 
NS(=O)(=O)c1c(S(=O)(=O)C2CNC2)ccc(-c2ccc(O)nc2)c1-c1nnn[nH]1.O=C(O)C(F)(F)F [Example 109, 3-((4-(6-hydroxypyridin-3-yl)-2-sulfamoyl-3-(1H-tetrazol-5-yl)phenyl)sulfonyl)azetidin-1-ium 2,2,2-trifluoroacetate] |  |  | 1.44 | 0.7813 | 3.125 | 1.563 | 12.5 | 8.00 | 1.563 |  |  | 
NS(=O)(=O)c1c(S(=O)(=O)C2CNC2)ccc(-c2ccc(CO)nc2)c1-c1nnn[nH]1.O=C(O)C(F)(F)F [Example 111, 3-((4-(6-(hydroxymethyl)pyridin-3-yl)-2-sulfamoyl-3-(1H-tetrazol-5-yl)phenyl)sulfonyl)azetidin-1-ium 2,2,2-trifluoroacetate] |  |  | 0.96 | 3.125 | 6.25 | 3.125 | 6.25 | 4.00 | 1.563 |  |  | 
NC(=O)N1CC(S(=O)(=O)c2ccc(-c3ccc(NS(=O)(=O)C4CC4)cc3)c(-c3nn[nH]n3)c2S(N)(=O)=O)C1 [Example 246, 3-((4′-(cyclopropanesulfonamido)-3-sulfamoyl-2-(2H-tetrazol-5-yl)-[1,1′-biphenyl]-4-yl)sulfonyl)azetidine-1-carboxamide] | 0.103 |  | 0.139 |  |  |  | 12.5 |  | 3.125 | 50 | 25 | 12.5
NS(=O)(=O)c1c(S(=O)(=O)C2CNC2)ccc(-c2cccc3c2C(=O)NS3(=O)=O)c1-c1nn[nH]n1 [Example 249, 6-(Azetidin-3-ylsulfonyl)-3-(1,1-dioxido-3-oxo-2,3-dihydrobenzo[d]isothiazol-4-yl)-2-(2H-tetrazol-5-yl)benzenesulfonamide] |  |  | 0.322 |  |  |  | 12.5 | 2.00 | 6.25 | 6.25 | 25 | 6.25
C[C@@H](CN)S(=O)(=O)c1ccc(-c2cccc3nc(N)[nH]c23)c(-c2nn[nH]n2)c1S(N)(=O)=O [Example 278, 3-(2-amino-3H-benzo[d]imidazol-4-yl)-6-((S)-1-aminopropan-2-ylsulfonyl)-2-(2H-tetrazol-5-yl)benzenesulfonamide] |  |  | 0.365 |  |  |  | 1.563 | 2.00 | 0.7813 | 0.3906 | 1.563 | 0.7813
NC[C@H](O)CS(=O)(=O)c1ccc(-c2cccc3sc(N)nc23)c(-c2nn[nH]n2)c1S(N)(=O)=O [Example 281, 6-((S)-3-amino-2-hydroxypropylsulfonyl)-3-(2-aminobenzo[d]thiazol-4-yl)-2-(2H-tetrazol-5-yl)benzenesulfonamide] |  | 0.0561 | 0.134 |  |  |  | 0.3906 |  | 0.7813 | 0.7813 | 1.563 | 0.7813
Nc1nc2cc(F)cc(-c3ccc(S(=O)(=O)C4CNC4)c(S(N)(=O)=O)c3-c3nnn[nH]3)c2[nH]1 [Example 296, 3-(2-amino-5-fluoro-1H-benzo[d]imidazol-7-yl)-6-(azetidin-3-ylsulfonyl)-2-(1H-tetrazol-5-yl)benzenesulfonamide] |  |  | 0.227 |  |  |  | 0.7813 | 1.00 | 0.7813 | 0.5859 | 1.172 | 0.7813
Nc1nc2nccc(-c3ccc(S(=O)(=O)C4CNC4)c(S(N)(=O)=O)c3-c3nnn[nH]3)c2[nH]1 [Example 302] |  |  | 9.99 |  |  |  | 200 | 16.00 | 12.5 | 3.125 | 6.25 | 12.5
NCCS(=O)(=O)c1ccc(-c2ccnc3nc(N)[nH]c23)c(-c2nnn[nH]2)c1S(N)(=O)=O [Example 303, 3-(2-amino-1H-imidazo[4,5-b]pyridin-7-yl)-6-((2-aminoethyl)sulfonyl)-2-(1H-tetrazol-5-yl)benzenesulfonamide] |  |  | 11.3 |  |  |  | 100 | 32.00 | 3.125 | 3.125 | 3.125 | 6.25
NC[C@@H](O)CS(=O)(=O)c1ccc(-c2cccnc2N)c(-c2nn[nH]n2)c1S(N)(=O)=O [Example 367, (R)-6-((3-amino-2-hydroxypropyl)sulfonyl)-3-(2-aminopyridin-3-yl)-2-(2H-tetrazol-5-yl) benzenesulfonamide] |  |  | 0.703 |  |  |  | 1.563 | 1.00 | 1.563 | 0.1953 | 1.563 | 0.7813
NC[C@H](O)CS(=O)(=O)c1ccc(-c2cccnc2N)c(-c2nn[nH]n2)c1S(N)(=O)=O [Example 368, (S)-6-((3-amino-2-hydroxypropyl)sulfonyl)-3-(2-aminopyridin-3-yl)-2-(2H-tetrazol-5-yl) benzenesulfonamide] |  |  | 0.561 |  |  |  | 1.563 | 1.33 | 1.172 | 0.1953 | 2.344 | 0.7813
